A short description of data set [1]: Chemical hydrolysis stability at pH 1 and pH 7.4 (HPLC). The class given is physicochemical. As to conditions: 37° C., over 12 h. The essentials:
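Compound dissolved in 0.1 N HCl or PBS and held at 37° C over 12 h, sampling at set intervals for remaining prodrug by reversed-phase C8 HPLC with 220 nm detection. Peak areas expressed relative to first injection, ln-plotted against time; t1/2 [h] derived assuming first-order kinetics.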

A short description of data set [2]: Log D (pH 7.4) by isocratic HPLC. The class given is physicochemical. Particulars: YMC Pro C18 column, phosphate buffer pH 7.4/acetonitrile 45/55. The essentials: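 Retention measured by isocratic HPLC on a C18 column (150 mm×4.0 mm, 3 μm) eluted with phosphate buffer pH 7.4/acetonitrile 45/55 (v/v) at 1.2 ml/min, run time 15-60 min. Detection at 220 nm.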
Data set [3] can be described thus: Stability in TPGS/PG over 22 h. As to conditions: for Amount of compound: TPGS/PG, ambient temperature; for Amount of entacapone: entacapone formed in TPGS/PG. The class given is physicochemical. The procedure:
The stability of selected compounds of formula I in TPGS/PG over 22 h is tested by the following procedure: […]
37.5 mg of compounds 15, 35 and 57, respectively […] of compound 63, are in each case added to 25 mL of TPGS/PG (25% by weight of TPGS, 75% by weight of PG) (concentration of compounds 15, 35, 57:1.5 mg/mL; concentration of compound 63:1.4 mg/mL). Each formulation obtained is stirred for 22 h at ambient temperature. The amount of the respective compound of formula I and the amount of entacapone are determined after 5 h, 8 h, 11 h, and 22 h by HPLC assay. Reversed phase gradient HPLC method, column YMC Pro C8, 50 mm×4.0 mm, 3 μm, Eluent A: Water:trifluoroacetic acid (100:0.5 (v/v)), Eluent B: Acetonitrile:trifluoroacetic acid (100:0.5 (v/v)). Column temperature 30° C., Flow rate 3.0 mL/min, Detection wavelength: 220 nm

Data set [4] can be described thus: Stability of Labrasol formulations in simulated gastric fluid (precipitate formation). The class given is physicochemical. Particulars: for Precipitate formation, directly after addition: 3 mg in 1.5 mL Labrasol added to 10 mL SGF, visual inspection; for Precipitate formation, 5 min / Precipitate formation, 15 min / Precipitate formation, 30 min / Precipitate formation, 60 min / Precipitate formation, 24 h: Labrasol solution in SGF. The procedure:
(§1) Simulated gastric fluid (SGF) is prepared as follows. 200 mg NaCl are dissolved in 70 mL H2O. 0.7 mL concentrated HCl is added. Subsequently, 320 mg of pepsin powder is added, and the mixture is filled up to 100 mL with H2O. A clear solution is obtained (pH 1-2).
1.5 mL of Labrasol® is added to 3 mg of the respective compound of formula I, and the obtained solutions are shaken. Subsequently, each of the solutions is added to 10 mL SGF by drop-wise addition. Precipitate formation is determined by visual inspection of each solution immediately after the addition of the solution comprising the respective compound of formula I in Labrasol® to SGF and after 5, 15, 30, and 60 min, and 24 h.

Data set [5] in a line: Stability of TPGS/PG formulations in simulated gastric fluid (precipitate formation). The class given is physicochemical. As to conditions: for Precipitate formation, directly after addition: 1.0 mL TPGS/PG solution added to 10 mL SGF, visual inspection; for Precipitate formation, 24 h: TPGS/PG solution in SGF. The procedure:
as §1
2 mL TPGS/PG is added to 5-6 mg of the respective compound of formula I, and the obtained solutions are shaken for 5 h. […] 1.0 mL of the centrifuged solution is added drop-wise to 10 mL SGF. Precipitate formation is determined by visual inspection of each solution immediately after addition of the solution comprising the respective compound of formula I in TPGS/PG to SGF and after 24 hours.

The nature of data set [6]: Plasma stability ex vivo. The class given is in vitro ADME. Particulars: human plasma, 37° C., read-out: t1/2 plasma. The procedure: Plasma stability is determined in human and rat plasma ex vivo. For the determination of the plasma stability of the compounds of formula I, the test compounds were incubated with human plasma (c=5 μg/mL) at 37° C. for certain time intervals up to 60, resp. 120 min (depending on the compound). Afterwards the incubations were stopped by equivalent addition of acetonitrile for protein precipitation, and the samples were mixed and centrifuged. The supernatants were adequately diluted and analyzed by HPLC with UV detection at 305 nm.
The degradation of the compounds of formula I as well as the formation of the active drug entacapone were monitored, and the half-life times of the compounds of formula I were calculated from the obtained peak areas.

The mark [7] stands for this setting: pH 1, 0.1 N HCl, read-out: t1/2 at pH 1 (converted).
[8] abbreviates: pH 7.4, PBS buffer, read-out: t1/2 at pH 7.4 (converted).
[9] abbreviates: 5 h, start 1.5 mg/mL (compound 63: 1.4 mg/mL).

Read-outs that look alike come from different tables or passages of the source.

As usually defined, the chromatographic logD is a lipophilicity value derived from retention on a column. A low value points to lower lipophilicity. In the case of `CCCC(C)OC(=O)Oc1cc(/C=C(\C#N)C(=O)N(CC)CC)cc([N+](=O)[O-])c1O` (centres unmarked) [Compound 63, Carbonic acid 5-((E)-2-cyano-2-diethylcarbamoyl-vinyl)-2-hydroxy-3-nitro-phenyl ester 1-methyl-butyl ester], the half-life in data set [1] (setting [7]) and in data set [1] (setting [8]) was 28.9 h in each case. In addition, the chromatographic logD in data set [2] was determined as 1.4. Further, the Amount of compound in data set [3] (setting [9]) is reported as 1.25 mg/mL; in data set [3] (8 h) it was 1.12 mg/mL; in data set [3] (11 h), 1.16 mg/mL; in data set [3] (22 h) it was 1.08 mg/mL. Besides, the Amount of entacapone in data set [3] (5 h) is 0.02 mg/mL; in data set [3] (8 h) it was 0.02 mg/mL; in data set [3] (11 h), 0.02 mg/mL; in data set [3] (22 h), 0.03 mg/mL. The “Precipitate formation, directly after addition” value (shortened to “Precipitate formation, directly”) in data set [4] (after shaking) was “clear after shaking”; in data set [4] (initially, before shaking), “First: white precipitate;”; in data set [5], “clear”. Moreover, the “Precipitate formation, 5 min” value in data set [4] is reported as “clear”. For the same compound, the “Precipitate formation, 15 min” value in data set [4] is “clear”. The “Precipitate formation, 30 min” value in data set [4] is “clear”. Further, in data set [4], the “Precipitate formation, 60 min” value was “clear”. The “Precipitate formation, 24 h” value in data set [4] and in data set [5] was “clear” throughout.

As for `CCCCCCCCOC(=O)Oc1cc(/C=C(\C#N)C(=O)N(CC)CC)cc([N+](=O)[O-])c1O` [Compound 35, Carbonic acid 5-((E)-2-cyano-2-diethylcarbamoyl-vinyl)-2-hydroxy-3-nitro-phenyl ester octyl ester], the results for the half-life in data set [1] (setting [7]) and in data set [1] (setting [8]) were 14.4 h and 6.8 h, respectively. Besides, the chromatographic logD in data set [2] stood at 3.1. Moreover, the half-life at 5 μg/mL in data set [6] came to 2 h. In addition, the Amount of compound in data set [3] (setting [9]) was 1.21 mg/mL; in data set [3] (8 h), 1.36 mg/mL; in data set [3] (11 h), 1.40 mg/mL; in data set [3] (22 h), 1.23 mg/mL. Further, the Amount of entacapone in data set [3] (5 h) came to 0.03 mg/mL; in data set [3] (8 h), 0.05 mg/mL; in data set [3] (11 h), 0.07 mg/mL; in data set [3] (22 h), 0.08 mg/mL. The “Precipitate formation, directly” value in data set [4] (after shaking) was “clear after shaking”; in data set [4] (initially, before shaking) it was “First: white precipitate;”; in data set [5], “clear”. Moreover, the “Precipitate formation, 5 min” value in data set [4] is “clear”. Also, the “Precipitate formation, 15 min” value in data set [4] is recorded as “clear”. Further, in data set [4], the “Precipitate formation, 30 min” value was “clear”. In data set [4], the “Precipitate formation, 60 min” value is on record as “clear”. Further, the “Precipitate formation, 24 h” value in data set [4] and in data set [5] was “clear” throughout.

Turning to `CCN(CC)C(=O)/C(C#N)=C/c1cc(OC(=O)OCC2CCCCC2)c(O)c([N+](=O)[O-])c1` [Compound 57, Carbonic acid 5-((E)-2-cyano-2-diethylcarbamoyl-vinyl)-2-hydroxy-3-nitro-phenyl ester cyclohexylmethyl ester], the half-life in data set [1] (setting [7]) is 16.5 h; in data set [1] (setting [8]), 7.7 h. Also, the chromatographic logD in data set [2] worked out at 2.3. Besides, in data set [6], the half-life at 5 μg/mL came to 0.302 h. The Amount of compound was 1.37 mg/mL in data set [3] (setting [9]), 1.39 mg/mL in data set [3] (8 h), 1.35 mg/mL in data set [3] (11 h) and 1.31 mg/mL in data set [3] (22 h). In addition, the Amount of entacapone came to 0.03 mg/mL in data set [3] (5 h), 0.04 mg/mL in data set [3] (8 h), 0.05 mg/mL in data set [3] (11 h) and 0.08 mg/mL in data set [3] (22 h). The “Precipitate formation, directly” value is “clear after shaking” in data set [4] (after shaking); “First: white precipitate;” in data set [4] (initially, before shaking); “clear” in data set [5]. Besides, the “Precipitate formation, 5 min” value in data set [4] is given as “clear”. The “Precipitate formation, 15 min” value in data set [4] was “clear”. For the same compound, in data set [4], the “Precipitate formation, 30 min” value is “clear”. Besides, the “Precipitate formation, 60 min” value in data set [4] is “clear”. In addition, the “Precipitate formation, 24 h” value in data set [4] and in data set [5] was “clear” each time.

For the compound `CCCCC(CC)COC(=O)Oc1cc(/C=C(\C#N)C(=O)N(CC)CC)cc([N+](=O)[O-])c1O` (centres unmarked) [Compound 15, Carbonic acid 5-((E)-2-cyano-2-diethylcarbamoyl-vinyl)-2-hydroxy-3-nitro-phenyl ester 2-ethyl-hexyl ester], the half-life in data set [1] (setting [7]) was 15.6 h; in data set [1] (setting [8]) it was 7.2 h. The compound further returned a chromatographic logD in data set [2] of 2.9. For the same compound, the half-life at 5 μg/mL in data set [6] turned out to be 1.48 h. Besides, the Amount of compound in data set [3] (setting [9]) came to 1.23 mg/mL; in data set [3] (8 h) it was 1.23 mg/mL; in data set [3] (11 h), 1.16 mg/mL; in data set [3] (22 h), 1.05 mg/mL. The Amount of entacapone in data set [3] (5 h) is listed as 0.05 mg/mL; in data set [3] (8 h) it was 0.06 mg/mL; in data set [3] (11 h) it was 0.10 mg/mL; in data set [3] (22 h) it was 0.17 mg/mL. The “Precipitate formation, directly” value in data set [4] (after shaking) is recorded as “clear after shaking”; in data set [4] (initially, before shaking) it was “First: white precipitate;”; in data set [5], “clear”. The “Precipitate formation, 5 min” value in data set [4] is reported as “clear”. Besides, the “Precipitate formation, 15 min” value in data set [4] is “clear”. Further, in data set [4], the “Precipitate formation, 30 min” value is recorded as “clear”. For the same compound, the “Precipitate formation, 60 min” value in data set [4] is given as “clear”. Further, the “Precipitate formation, 24 h” value in data set [4] and in data set [5] was “clear” each time.

The record behind these values is patent US20080103191A1, “ENTACAPONE-DERIVATIVES” (priority 2006, published 2008).
